# Source: patent US20190135834A1, “5-SUBSTITUTED AZABENZIMIDAZOLE DERIVATIVE HAVING ???? ACTIVATION ACTION” (Shionogi & Co., Ltd., priority 2016, published 2019)
# Target: T1, Human AMPK α2ß2γ1 (Homo sapiens, UniProt O43741+P54646)
# T1 construct: The full length cDNAs of human AMPK ß2 (NM_005399.3) and human AMPK α2 (NM_006252.3); The full length cDNAs of human AMPK ß2 (NM_005399.3); 6xHis (N); made in house; host or cells: Escherichia coli BL21 CodonPlus (DE3)-RIL
# Test: Test Example 2: evaluation of an activator for AMP-activated protein kinase (AMPK), LabChip mobility shift assay with CaMKK2-phosphorylated enzyme
# Format: biochemical
# Conditions: for EC150 (compound concentration showing 150% relative to the control (100%)): FL-Peptide 7 substrate, 25° C., 2 hours; for Emax: read-out: Emax (maximum rate of increase in activity within the measurement range)
# Protocol: The full length cDNAs of human AMPK ß2 (NM_005399.3) and human AMPK α2 (NM_006252.3) were inserted into the MCS1 and MCS2 of the pETDuet-1 vector to prepare a human AMPK ß2 and human AMPK α2 (6× His tag at the 5′ terminus) expressing plasmid. The plasmid was cotransfected with an expression plasmid, in which the full length cDNA of human AMPK γ1 (NM_002733.3) had been inserted into pET28b(+), into BL21 CodonPlus (DE3)-RIL to obtain an expression strain. The expression strain was cultured in TB medium, followed by induction with 0.5 mM IPTG, and cultured at 25° C. for 3 hours and then harvested. After ultrasonication, supernatant was collected and applied to Histrap FF column (GE) and RESOURCE Q column (GE) to prepare 12.5 mg of purified sample containing three types of subunit from 1.8 L of broth.
# Preparation method of human CaMKK2 used to impart activity to AMPK An expression vector, in which the full length cDNA of human CAMKK ß (NM_172226.1) had been inserted into pGEX-6P-3, was transfected into BL21 Star (DE3). The expression strain was cultured in TB medium, followed by induction with 0.5 mM IPTG, and cultured at 25° C. for 3 hours and then harvested. After ultrasonication, supernatant was collected and applied to GSTrap FF column (GE) to prepare 14 mg of GST-fused CAMKK ß from 720 ml of broth.
# Thus, phosphorylation treatment was carried out as pretreatment.
# Human AMPK α2ß2γ1 in an amount to give a conversion rate of approximately 10% by reaction for 2 hours, and CaMKK2 in an amount capable of sufficiently imparting activity to AMPK for one hour were mixed in a buffer solution consisting of a 50 mM HEPES-NaOH buffer solution (pH 7.0), 100 mM NaCl, 5 mM magnesium chloride, 0.1% bovine serum albumin, 0.2 mM sodium orthovanadate(V), 1 mM ethylene glycol-bis(2-aminoethyl ether)-N,N,N′,N′-tetraacetic acid (EGTA), 5 mM disodium ß-glycerophosphate, 1 mM dithiothreitol and 0.2 mM ATP, and the resulting liquid was left to stand at 25° C. for 1 to 1.5 hours to sufficiently phosphorylate AMPK.
# After that, to the enzyme liquid, which had been subjected to phosphorylation treatment, a compound dissolved in DMSO was added so as to have a 1% DMSO concentration. The resulting liquid was left to stand for 10 minutes.
# To the liquid, a substrate solution consisting of a 50 mM HEPES-NaOH buffer solution (pH 7.0), 100 mM NaCl, 10 mM magnesium chloride, 0.1% bovine serum albumin, 0.2 mM sodium orthovanadate(V), 1 mM ethylene glycol-bis(2-aminoethyl ether)-N,N,N′,N′-tetraacetic acid (EGTA), 5 mM disodium ß-glycerophosphate, 2 mM dithiothreitol, 0.4 mM ATP and 3 μM FL-Peptide 7 (manufactured by Caliper Life Sciences, Inc.) was added in equal amount (10 μl in total). The resulting liquid was allowed to react at 25° C. for 2 hours, and 10 μl of 20 mM EDTA was added thereto to stop the reaction.
# To detect phosphorylated fluorescent substrates, the reaction mixture was applied to a measuring device, LabChip EZ Reader II manufactured by Caliper Life Science, Inc., for detecting fluorescence by using differences in mobility due to differences in charge. The setting conditions for the device were pressure, −1.5 PSI; upstream voltage, −2250 V; downstream voltage, −400 V; post sample buffer sip time, 40 seconds; final delay, 120 seconds; and peak order, Product First.
# A conversion rate was calculated from the peak heights of the obtained substrate and product. The conversion rate when not containing a compound was used as a control, and a concentration dependent curve was made by plotting the rate of increase in activity to the control at each concentration of a compound.
# T1 sequence (P54646 whole entry): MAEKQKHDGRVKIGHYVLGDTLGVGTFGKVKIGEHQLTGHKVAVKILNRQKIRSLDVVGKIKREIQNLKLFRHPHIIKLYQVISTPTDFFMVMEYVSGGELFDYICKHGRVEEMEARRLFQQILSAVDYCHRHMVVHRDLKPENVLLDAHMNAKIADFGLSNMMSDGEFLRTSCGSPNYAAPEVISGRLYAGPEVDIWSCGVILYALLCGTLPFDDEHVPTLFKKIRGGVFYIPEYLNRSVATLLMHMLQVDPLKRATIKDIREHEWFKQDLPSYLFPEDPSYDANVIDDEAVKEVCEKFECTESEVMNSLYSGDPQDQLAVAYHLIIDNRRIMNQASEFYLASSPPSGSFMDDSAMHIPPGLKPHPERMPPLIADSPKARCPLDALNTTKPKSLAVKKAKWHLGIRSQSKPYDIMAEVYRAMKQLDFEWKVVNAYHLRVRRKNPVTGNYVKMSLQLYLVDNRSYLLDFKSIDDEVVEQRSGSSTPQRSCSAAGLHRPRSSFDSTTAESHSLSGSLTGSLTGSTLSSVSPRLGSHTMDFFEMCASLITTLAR
# T1 sequence (O43741 whole entry): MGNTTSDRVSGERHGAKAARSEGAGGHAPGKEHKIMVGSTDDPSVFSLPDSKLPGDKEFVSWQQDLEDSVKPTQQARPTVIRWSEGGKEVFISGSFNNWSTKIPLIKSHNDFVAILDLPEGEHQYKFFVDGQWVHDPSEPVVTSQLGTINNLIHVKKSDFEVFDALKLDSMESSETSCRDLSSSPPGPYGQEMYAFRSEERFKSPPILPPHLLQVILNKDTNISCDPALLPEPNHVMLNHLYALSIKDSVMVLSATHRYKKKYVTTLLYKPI
# T1 sequence (P54619 whole entry partner): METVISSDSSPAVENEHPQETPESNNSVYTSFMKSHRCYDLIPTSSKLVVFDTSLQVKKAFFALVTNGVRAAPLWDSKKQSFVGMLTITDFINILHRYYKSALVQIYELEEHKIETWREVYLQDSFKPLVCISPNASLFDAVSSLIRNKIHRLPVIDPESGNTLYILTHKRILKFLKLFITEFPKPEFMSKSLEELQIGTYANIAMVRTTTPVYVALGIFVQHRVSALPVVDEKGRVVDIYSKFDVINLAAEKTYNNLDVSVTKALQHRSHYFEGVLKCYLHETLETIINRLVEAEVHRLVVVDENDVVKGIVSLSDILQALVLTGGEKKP
Compound,EC150 (compound concentration showing 150% relative to the control (100%)) [nM],Emax (relative to control (100%)) [%],Emax (maximum rate of increase in activity within the measurement range) (relative to control (100%)) [%]
"COCCCc1cnc2c(c1)CCC2Nc1nc2nc(O[C@@H]3CO[C@H]4[C@@H]3OC[C@H]4O)[nH]c2cc1Cl (single isomer, unassigned) [Compound I-1-10]",8.4,608,
"COC/C=C/c1cnc2c(c1)CCC2Nc1nc2nc(O[C@@H]3CO[C@H]4[C@@H]3OC[C@H]4O)[nH]c2cc1Cl (single isomer, unassigned) [Compound I-1-13]",2,604,
"COC/C=C/c1cc(F)c2c(c1)CCC2Oc1nc2nc(O[C@@H]3CO[C@H]4[C@@H]3OC[C@H]4O)[nH]c2cc1Cl (single isomer, unassigned) [Compound I-1-19]",3.5,404,
"Cn1cc(-c2cc(F)c3c(c2)CCC3Oc2nc3nc(O[C@@H]4CO[C@H]5[C@@H]4OC[C@H]5O)[nH]c3cc2Cl)cn1 (single isomer, unassigned) [Compound I-1-20]",4.3,403,
"Cn1ccc(-c2cc(F)c3c(c2)CCC3Oc2nc3nc(O[C@@H]4CO[C@H]5[C@@H]4OC[C@H]5O)[nH]c3cc2Cl)cc1=O (single isomer, unassigned) [Compound I-1-23]",1.3,454,
"Cn1cc(-c2cc(F)c3c(c2)CCC3Nc2nc3nc(O[C@@H]4CO[C@H](CO)C4)[nH]c3cc2Cl)cn1 (single isomer, unassigned) [Compound I-1-29]",1.9,426,
O[C@@H]1CO[C@H]2[C@@H]1OC[C@H]2Oc1nc2nc(NC3CCc4cc(Br)cnc43)c(Cl)cc2[nH]1 (stereo partly drawn) [Compound I-1-4],11,547,
OC/C=C/c1cnc2c(c1)CCC2Nc1nc2nc(O[C@@H]3CO[C@H]4[C@@H]3OC[C@H]4O)[nH]c2cc1Cl (stereo partly drawn) [Compound I-1-6],6.8,516,
Cn1cc(-c2cnc3c(c2)CCC3Nc2nc3nc(O[C@@H]4CO[C@H]5[C@@H]4OC[C@H]5O)[nH]c3cc2Cl)cn1 (stereo partly drawn) [Compound I-1-7],1.6,614,
COCCOc1cnc2c(c1)CCC2Nc1nc2nc(O[C@@H]3CO[C@H]4[C@@H]3OC[C@H]4O)[nH]c2cc1Cl (stereo partly drawn) [Compound I-1-11],9.8,606,
COCCNc1cnc2c(c1)CCC2Nc1nc2nc(O[C@@H]3CO[C@H]4[C@@H]3OC[C@H]4O)[nH]c2cc1Cl (stereo partly drawn) [Compound I-1-14],33,371,
Cn1cc(-c2cnc3c(c2)CCC3Oc2nc3nc(O[C@@H]4CO[C@H]5[C@@H]4OC[C@H]5O)[nH]c3cc2Cl)cn1 (stereo partly drawn) [Compound I-1-15],10,388,
COC/C=C/c1cc(F)c2c(c1)CCC2Nc1nc2[nH]c(O[C@@H]3CO[C@H](CO)C3)nc2cc1Cl (stereo partly drawn) [Compound I-1-24],25,423,
OCCOc1cc(F)c2c(c1)CCC2Nc1nc2nc(O[C@@H]3CO[C@H]4[C@@H]3OC[C@H]4O)[nH]c2cc1Cl (stereo partly drawn) [Compound I-1-32],2.3,389,
O[C@@H]1CO[C@H]2[C@@H]1OC[C@H]2Oc1nc2nc(NC3CCc4cc(OC5CCOCC5)cc(F)c43)c(Cl)cc2[nH]1 (stereo partly drawn) [Compound I-1-35],4.3,402,
O[C@@H]1CO[C@H]2[C@@H]1OC[C@H]2Oc1nc2nc(NC3CCc4cc(OCCN5CCCCC5)cc(F)c43)c(Cl)cc2[nH]1 (stereo partly drawn) [Compound I-1-38],8,392,
Cn1ccc(-c2cc(F)c3c(c2)CCC3Nc2nc3nc(O[C@@H]4CO[C@H]5[C@@H]4OC[C@H]5O)[nH]c3cc2Cl)cc1=O (stereo partly drawn) [Compound I-1-39],2.9,384,
NC(=O)COc1cc(F)c2c(c1)CCC2Nc1nc2nc(O[C@@H]3CO[C@H]4[C@@H]3OC[C@H]4O)[nH]c2cc1Cl (stereo partly drawn) [Compound I-1-42],2.1,391,
O=C(COc1cc(F)c2c(c1)CCC2Nc1nc2nc(O[C@@H]3CO[C@H]4[C@@H]3OC[C@H]4O)[nH]c2cc1Cl)NCO (stereo partly drawn) [Compound I-1-43],6.5,392,
Cn1cc(-c2cc(F)c3c(c2)CCC3Nc2nc3nc(O[C@@H]4CO[C@H]5[C@@H]4OC[C@H]5O)[nH]c3cc2Cl)cn1 (stereo partly drawn) [Compound I-1-44],5.6,422,
CC(=O)Nc1cc(F)c2c(c1)CCC2Nc1nc2nc(O[C@@H]3CO[C@H]4[C@@H]3OC[C@H]4O)[nH]c2cc1Cl (stereo partly drawn) [Compound I-1-45],4.7,435,
O[C@@H]1CO[C@H]2[C@@H]1OC[C@H]2Oc1nc2nc(NC3CCc4cc(-c5ccccc5)cnc43)c(Cl)cc2[nH]1 (stereo partly drawn) [Compound I-1-46],54,381,
NC(=O)COc1cnc2c(c1)CCC2Nc1nc2nc(O[C@@H]3CO[C@H]4[C@@H]3OC[C@H]4O)[nH]c2cc1Cl (stereo partly drawn) [Compound I-1-47],14,390,
O[C@@H]1CO[C@H]2[C@@H]1OC[C@H]2Oc1nc2nc(NC3CCc4cc(C5=CCOCC5)cnc43)c(Cl)cc2[nH]1 (stereo partly drawn) [Compound I-1-48],15,393,
O[C@@H]1CO[C@H]2[C@@H]1OC[C@H]2Oc1nc2nc(NC3CCc4cc(NCC(F)(F)F)cnc43)c(Cl)cc2[nH]1 (stereo partly drawn) [Compound I-1-70],21,384,
C/C=C/c1cc(F)c2c(c1)CCC2Oc1nc2nc(O[C@@H]3CO[C@H]4[C@@H]3OC[C@H]4O)[nH]c2cc1Cl (stereo partly drawn) [Compound I-1-72],13,375,
O[C@@H]1CO[C@H]2[C@@H]1OC[C@H]2Oc1nc2nc(OC3CCc4cc(-c5cscn5)cc(F)c43)c(Cl)cc2[nH]1 (stereo partly drawn) [Compound I-1-74],9.9,373,
Cn1nccc1-c1cc(F)c2c(c1)CCC2Oc1nc2nc(O[C@@H]3CO[C@H]4[C@@H]3OC[C@H]4O)[nH]c2cc1Cl (stereo partly drawn) [Compound I-1-76],15,378,
Cn1cccc(-c2cc(F)c3c(c2)CCC3Oc2nc3nc(O[C@@H]4CO[C@H]5[C@@H]4OC[C@H]5O)[nH]c3cc2Cl)c1=O (stereo partly drawn) [Compound I-1-77],3.3,386,
O=C1CCCN1CCOc1cc(F)c2c(c1)CCC2Nc1nc2nc(O[C@@H]3CO[C@H]4[C@@H]3OC[C@H]4O)[nH]c2cc1Cl (stereo partly drawn) [Compound I-1-79],4.2,,385
